The results in this text go back to ChEMBL document CHEMBL6087426, “Design, synthesis and bioactivity evaluation of cinnamic acid derivatives as potential anti-inflammatory agents against LPS-induced acute lung injury” (Bioorg Med Chem Lett, 2025).

SMILES strings stand for the structures. The source made the active and inactive calls. The rule behind the calls is not given here.

The subject of series [1] is J774.A1. Nature of the series: Cytotoxicity against mouse J774.A1 cells assessed as cell survival at 10 uM by MTT assay. It is filed as toxicity, cell-based. Conditions: j774.a1, 10 µM. For orientation: Tetrazolium assays rely on reduction of a dye to a coloured formazan, in cell work by metabolically active cells.
The subject of series [2] is J774.A1. The experiment in a line: Anti-inflammatory activity against mouse J774.A1 cells assessed as inhibition of LPS-induced IL-6 production at 10 uM preincubated for 30 mins followed by LPS stimulation for 24 hrs by ELISA relative to control. It is filed as functional. Conditions: time 24.5 hrs. On the technique in general: An ELISA detects its analyte on a solid surface through an enzyme-linked reagent.

The subject of series [3] is Mus musculus. The experiment in a line: Anti-inflammatory activity in C57BL/6 mouse assessed as decrease in LPS-induced IL-6 level in BALF at 20 mg/kg pretreated for 30 mins followed by LPS stimulation for 6 hrs by ELISA. The class given is functional, organism-based. Particulars: time 6.5 hrs.
For series [4], the system named is Mus musculus. The experiment in a line: Anti-inflammatory activity in C57BL/6 mouse assessed as decrease in LPS-induced IL-6 level in serum at 20 mg/kg pretreated for 30 mins followed by LPS stimulation for 6 hrs by ELISA. It is filed as functional, organism-based. Particulars: time 6.5 hrs.
In series [5] the test system is Mus musculus. Nature of the series: Anti-inflammatory activity in C57BL/6 mouse assessed as decrease in LPS-induced interstitial edema in lung tissue at 20 mg/kg pretreated for 30 mins followed by LPS stimulation for 6 hrs by H and E staining based analysis. The class given is functional, organism-based. Conditions: time 6.5 hrs.
For series [6], the system named is Mus musculus. The experiment in a line: Anti-inflammatory activity in C57BL/6 mouse assessed as decrease in LPS-induced pulmonary congestion in lung tissue at 20 mg/kg pretreated for 30 mins followed by LPS stimulation for 6 hrs by H and E staining based analysis. It is filed as functional, organism-based. Particulars: time 6.5 hrs.
Series [7] has as its system Mus musculus. Nature of the series: Anti-inflammatory activity in C57BL/6 mouse assessed as decrease in LPS-induced TNF-alpha level in BALF at 20 mg/kg pretreated for 30 mins followed by LPS stimulation for 6 hrs by ELISA. Conditions: time 6.5 hrs. The class given is functional, organism-based.
The subject of series [8] is Mus musculus. The experiment in a line: Anti-inflammatory activity in C57BL/6 mouse assessed as decrease in LPS-induced TNF-alpha level in serum at 20 mg/kg pretreated for 30 mins followed by LPS stimulation for 6 hrs by ELISA. Particulars: time 6.5 hrs. The class given is functional, organism-based.
Series [9] concerns Mus musculus. Nature of the series: Anti-inflammatory activity in C57BL/6 mouse assessed as decrease in LPS-induced total protein level in BALF at 20 mg/kg pretreated for 30 mins followed by LPS stimulation for 6 hrs. Conditions: time 6.5 hrs. The class given is functional, organism-based.
Series [10] relates to Mus musculus. Nature of the series: Anti-inflammatory activity in C57BL/6 mouse assessed as decrease in LPS-induced thickened alveolar septa in lung tissue at 20 mg/kg pretreated for 30 mins followed by LPS stimulation for 6 hrs by H and E staining based analysis. It is filed as functional, organism-based. Conditions: time 6.5 hrs.
Series [11] concerns Mus musculus. Nature of the series: Anti-inflammatory activity in C57BL/6 mouse assessed as decrease in LPS-induced destruction in lung tissue at 20 mg/kg pretreated for 30 mins followed by LPS stimulation for 6 hrs by H and E staining based analysis. It is filed as functional, organism-based. Particulars: time 6.5 hrs.
In series [12] the test system is Mus musculus. The experiment in a line: Anti-inflammatory activity in C57BL/6 mouse assessed as decrease in LPS-induced inflammatory infiltration in lung tissue at 20 mg/kg pretreated for 30 mins followed by LPS stimulation for 6 hrs by H and E staining based analysis. The class given is functional, organism-based. Particulars: time 6.5 hrs.
For series [13], the system named is Mus musculus. Nature of the series: Anti-inflammatory activity in C57BL/6 mouse assessed as decrease in LPS-induced macrophage infiltration in lung tissue at 20 mg/kg pretreated for 30 mins followed by LPS stimulation for 6 hrs by IHC analysis. Conditions: time 6.5 hrs. The class given is functional, organism-based.
The test system of series [14] is J774.A1. The experiment in a line: Anti-inflammatory activity against mouse J774.A1 cells assessed as inhibition of LPS-induced IL-6 production preincubated for 30 mins followed by LPS stimulation for 24 hrs by ELISA. The class given is functional, cell-based.
In series [15] the test system is Mus musculus. The experiment in a line: Anti-inflammatory activity in C57BL/6 mouse assessed as decrease in LPS-induced wet to dry ratio in lung tissue at 20 mg/kg pretreated for 30 mins followed by LPS stimulation for 6 hrs. It is filed as functional, organism-based. Conditions: time 6.5 hrs.

Usually inhibition stands for the change of the read-out against control, counted positive when it falls. On to `COc1cc(-c2cnc(NC(=O)/C=C/c3ccccc3)s2)cc(OC)c1OC`, for which the Activity result in the series on J774.A1 [1] is “Non-toxic”. In addition, the inhibition at 10 µM with J774.A1 [2] turned out to be 72.7%.
Turning to `O=C(/C=C/c1ccccc1)Nc1ncc(-c2ccc(Br)cc2)s1`, the inhibition at 10 µM with J774.A1 [2] came to 21.6%.
Still for that read-out and setting: with `CCOc1ccc(-c2cnc(NC(=O)/C=C/c3ccccc3)s2)cc1` the figure was 37.6%; with `COc1ccc(-c2csc(NC(=O)c3ccccc3C)n2)cc1OC`, 36.8%; with `COc1ccc(-c2cnc(NC(=O)/C=C/c3ccccc3)s2)cc1OC`, 53%.
What is called IC50 is the concentration needed to halve the response being measured. Consider `O=C(/C=C/c1ccccc1)Nc1nc2ccccc2s1`, for which the result in the series with Mus musculus [3], with Mus musculus [4], in the series with Mus musculus [5], in the series with Mus musculus [6], in the series with Mus musculus [7] and in the series with Mus musculus [8] was Active. Moreover, the outcome in the series on Mus musculus [9], in the series with Mus musculus [10], in the series on Mus musculus [11], in the series with Mus musculus [12], with Mus musculus [13] and with Mus musculus [15] was Active. Besides, the Activity entry in the series with J774.A1 [1] was “Non-toxic”. Moreover, the IC50 in the series with J774.A1 [14] was 1060 nM. The inhibition result with J774.A1 [14] (dose 1.25-10 µM, time 24.5 hrs) is “Dose-dependent-effect”. Further, the inhibition at 10 µM with J774.A1 [2] stood at 79.6%.
Turning to `COc1ccc(-c2csc(NC(=O)c3ccc(F)cc3)n2)cc1OC`, the inhibition at 10 µM in the series with J774.A1 [2] amounted to 51.2%.
For the compound `COc1ccc(-c2csc(NC(=O)c3ccc(C)cc3)n2)cc1OC`, the inhibition at 10 µM in the series with J774.A1 [2] was determined as 38.8%.
On to `C[C@@H]1C[C@H]2[C@@H]3CCC4=CC(=O)C=C[C@]4(C)[C@@]3(F)[C@@H](O)C[C@]2(C)[C@@]1(O)C(=O)CO`, for which the result in the series with Mus musculus [3], with Mus musculus [4], with Mus musculus [7], in the series on Mus musculus [8], in the series with Mus musculus [9] and with Mus musculus [13] was Active. In addition, the outcome in the series on Mus musculus [15] was Active.
Consider `COc1ccc(-c2csc(NC(=O)c3cccc(Br)c3)n2)cc1OC`, for which, in the series with J774.A1 [2], the inhibition at 10 µM is 19.8%.
Take `O=C(O)/C=C/c1ccccc1` [CINNAMIC ACID]: the inhibition at 10 µM with J774.A1 [2] was 26.4%.
Consider `COc1ccc(-c2csc(NC(=O)c3ccc(Cl)c([N+](=O)[O-])c3)n2)cc1OC`, for which the Activity result with J774.A1 [1] is reported as “Toxic”. Besides, the inhibition at 10 µM in the series with J774.A1 [2] was 64.1%.
Take `COc1ccc(-c2csc(NC(=O)c3ccc(F)cc3Cl)n2)cc1OC`: in the series on J774.A1 [2], the inhibition at 10 µM was found to be 23.3%.
Consider `O=C(/C=C/c1ccccc1)Nc1ncc(-c2cccc([N+](=O)[O-])c2)s1`, for which the inhibition at 10 µM in the series on J774.A1 [2] stood at 36.5%.
In the case of `O=C(/C=C/c1ccccc1)Nc1ncc(-c2ccc(C3CCCCC3)cc2)s1`, the inhibition at 10 µM in the series on J774.A1 [2] was 51.9%.
With `COc1ccc(-c2csc(NC(=O)c3cccc(F)c3)n2)cc1OC`, the inhibition at 10 µM in the series with J774.A1 [2] was 19.5%.
